The supplement of paper PMC10307832

These cell lines were tested with C1CCC(CC1)N(CCNCCC2=C3C(=C(C=C2)O)NC(=O)CO3)C(=O)CCNCCC4=CC(=C(C=C4)Cl)Cl [AZ505] + CC(=O)c1c(C)c2cnc(Nc3ccc(N4CCNCC4)cn3)nc2n(C2CCCC2)c1=O [Palbociclib] (partner 0.5 µM) (assay: relative viability (nuclei count vs DMSO), 5 days (fraction); higher = more cells survive). Conditions: first compound 0.08 µM.
Method in brief: (§1)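 Each reported value is a median over duplicate plates. It expresses relative viability: treated-well nuclei count divided by vehicle-well nuclei count. Lung cancer cell lines in 1536-well plates were dosed by pin tool a day after seeding, alone with one drug or with a fixed anchor-drug dose plus five library-drug doses (not always all listed) in √10 steps, and nuclei were counted after 5 days.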

Cell Line | relative viability
EPLC-272H | 0.272
NCI-H2228 | 0.554
NCI-H1792 | 0.642
NCI-H1355 | 0.369
NCI-H3122 | 0.212
NCI-H1437 | 0.309
NCI-H1755 | 0.42
NCI-H2023 | 0.368
HCC-15 | 0.78
NCI-H1793 | 0.293
PC-14 | 0.402
LC-2-ad | 0.458
NCI-H1944 | 0.346
NCI-H1975 | 0.531
RERF-LC-KJ | 0.982
ABC-1 | 0.469
NCI-H358 | 0.122
NCI-H650 | 0.279
PC-3 [JPC-3] | 0.527

Same assay, conditions: first compound 0.253 µM

Cell Line | relative viability
EPLC-272H | 0.291
NCI-H2228 | 0.723
NCI-H1355 | 0.398
NCI-H3122 | 0.228
NCI-H1437 | 0.33
NCI-H1755 | 0.46
NCI-H2023 | 0.405
HCC-15 | 0.714
NCI-H1793 | 0.271
PC-14 | 0.439
EKVX | 0.365
LC-2-ad | 0.479
NCI-H1944 | 0.325
NCI-H1975 | 0.473
RERF-LC-KJ | 1.15
NCI-H358 | 0.156
NCI-H650 | 0.377

Same assay, conditions: first compound 0.8 µM

Cell Line | relative viability
EPLC-272H | 0.315
NCI-H2228 | 0.69
NCI-H1792 | 0.619
NCI-H1355 | 0.396
NCI-H3122 | 0.18
NCI-H1437 | 0.314
NCI-H1755 | 0.434
NCI-H2023 | 0.345
HCC-15 | 0.686
NCI-H1793 | 0.3
PC-14 | 0.456
EKVX | 0.378
LC-2-ad | 0.45
NCI-H1944 | 0.339
NCI-H1975 | 0.505
RERF-LC-KJ | 1.05
ABC-1 | 0.686
NCI-H358 | 0.153
NCI-H650 | 0.322
PC-3 [JPC-3] | 0.521

Same assay, conditions: first compound 2.53 µM

Cell Line | relative viability
EPLC-272H | 0.298
NCI-H2228 | 0.768
NCI-H1792 | 0.612
NCI-H1355 | 0.367
NCI-H3122 | 0.19
NCI-H1437 | 0.335
NCI-H1755 | 0.441
NCI-H2023 | 0.365
HCC-15 | 0.847
NCI-H1793 | 0.307
PC-14 | 0.471
EKVX | 0.372
LC-2-ad | 0.499
NCI-H1944 | 0.3
NCI-H1975 | 0.621
RERF-LC-KJ | 1
ABC-1 | 0.661
NCI-H358 | 0.139
NCI-H650 | 0.395
PC-3 [JPC-3] | 0.566

Same assay, conditions: first compound 8 µM

Cell Line | relative viability
EPLC-272H | 0.35
NCI-H2228 | 0.918
NCI-H1792 | 0.696
NCI-H1355 | 0.374
NCI-H3122 | 0.197
NCI-H1437 | 0.301
NCI-H1755 | 0.442
NCI-H2023 | 0.345
HCC-15 | 0.739
NCI-H1793 | 0.347
PC-14 | 0.595
EKVX | 0.389
LC-2-ad | 0.511
NCI-H1944 | 0.308
NCI-H1975 | 0.564
RERF-LC-KJ | 0.984
ABC-1 | 0.517
NCI-H358 | 0.151
NCI-H650 | 0.309
PC-3 [JPC-3] | 0.568

What follows are cell lines tested with C1CCC(CC1)N(CCNCCC2=C3C(=C(C=C2)O)NC(=O)CO3)C(=O)CCNCCC4=CC(=C(C=C4)Cl)Cl [AZ505] + COc1cccc2cc(-c3nc([C@H]4CC[C@H](C(=O)O)CC4)n4ncnc(N)c34)[nH]c12 [OSI-027] (partner 0.5 µM) in the same assay as above. Conditions: first compound 0.08 µM.
Method in brief: as §1

Cell Line | relative viability
NCI-H2228 | 0.382
